According to article PMC12948245, “Fluorinated Carnitine Derivatives as Tools to Visualise Carnitine Transport and Metabolism” (Advanced Science, 2025):

Tests used:
OCTN2 [1] = target: T1, OCTN2 (Homo sapiens, UniProt O76082); assay: inhibition of […]FMC uptake in H460 cells by co-incubation; assay type: cell-based; details: HBSS, 37 °C, 60 min; inhibitor concentration of this test not given
T1 construct: gene SLC22A5; endogenous full-length transporter in intact H460 cells; identity supported by OCTN2 siRNA knockdown (siRNA L-007456-00-0005)
T1 sequence (O76082 1-557): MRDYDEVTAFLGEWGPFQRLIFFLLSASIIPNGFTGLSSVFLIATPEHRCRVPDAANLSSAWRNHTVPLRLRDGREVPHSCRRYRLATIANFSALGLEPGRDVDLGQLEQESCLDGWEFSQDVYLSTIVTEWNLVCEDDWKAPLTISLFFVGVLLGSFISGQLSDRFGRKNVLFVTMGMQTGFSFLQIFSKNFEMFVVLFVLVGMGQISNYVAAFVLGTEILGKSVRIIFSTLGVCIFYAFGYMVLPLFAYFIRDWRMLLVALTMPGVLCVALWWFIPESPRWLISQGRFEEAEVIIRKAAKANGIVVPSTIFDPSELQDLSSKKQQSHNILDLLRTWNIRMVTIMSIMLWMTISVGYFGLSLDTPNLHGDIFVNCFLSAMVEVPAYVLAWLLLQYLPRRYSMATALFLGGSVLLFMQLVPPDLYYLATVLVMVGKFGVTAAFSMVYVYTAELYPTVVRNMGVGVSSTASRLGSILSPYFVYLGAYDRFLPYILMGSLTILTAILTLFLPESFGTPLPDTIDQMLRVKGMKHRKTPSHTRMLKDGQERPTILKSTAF

OCTN2 [2] = target: T1, OCTN2; assay: competitive inhibition of […]FMC uptake in H460 cells, gamma counting; assay type: cell-based; details: HBSS, 37 °C, 60 min; [18F]FMC as tracer; endogenous transporter; n = 3

Row | SMILES | % reduction of [18F]FMC uptake (OCTN2 [1]) | IC50 (OCTN2 [2])
1 | C[N+](C)(C)NCCC(=O)[O-] [meldonium] | 78.1 ± 10.2% | –
2 | C[N+](C)(C)C[C@H](O)CC(=O)O [ʟ-carnitine] | – | 4.8 ± 1.6 µM
